Reference: the NIST ThermoML archive (doi:10.1016/j.jct.2010.07.008)

Conditions: Liquid, Closed cell (Static) method

CN(C)CCOCCO [2-(2-dimethylaminoethoxy)ethanol]
Conditions | vapor or sublimation pressure [kPa]
283.15 K | 0.007
293.14 K | 0.016
303.09 K | 0.0346
313.08 K | 0.0707
323.28 K | 0.1418
333.12 K | 0.2604
343.12 K | 0.4742
353.14 K | 0.8145
363.35 K | 1.419
373.1 K | 2.315
